The text below walks through data of ChEMBL document CHEMBL4219187, “A new target for Alzheimer's disease: A small molecule SERCA activator is neuroprotective in vitro and improves memory and cognition in APP/PS1 mice” (Bioorg Med Chem Lett, 2018).

The nature of data set [1]: Half life in mouse hepatocytes. It counts as ADME, cell-based, Hepatocyte.
A short description of data set [2]: Half life in human hepatocytes. It is filed as ADME, cell-based, Hepatocyte.
Data set [3] in a line: Half life in mouse microsomes. It is filed as ADME, Microsome.
Data set [4] can be described thus: Half life in human microsomes. It is filed as ADME, Microsome.
A short description of data set [5]: Half life in mouse plasma. It is filed as ADME, cell-free.
Data set [6] is described as follows: Half life in human plasma. It is filed as ADME, cell-free.
Data set [7] in a line: Clearance in mouse at 2 mg/kg, po. It is filed as ADME, organism-based. The settings on record: in vivo.
The target of data set [8] is Voltage-gated inwardly rectifying potassium channel KCNH2 (Homo sapiens, UniProt Q12809). Briefly: Inhibition of human ERG up to 10 uM.
A short description of data set [9]: Inhibition of CYP450 (unknown origin) up to 5 uM. It counts as ADME. The note with it: human.
The nature of data set [10]: Oral bioavailability in mouse at 50 mg/kg. It counts as ADME, organism-based. The note with it: in vivo.
Data set [11] has as its system Mus musculus. Briefly: Toxicity in mouse at 50 mg/kg, po. It is filed as organism-based. The note with it: in vivo.
The nature of data set [12]: Ratio of drug level in brain to plasma in mouse measured at 1 hr post dose. It is filed as ADME, cell-free. The note with it: brain and plasma, read-out: BPR.
The test system of data set [13] is Mus musculus. Kind of data set: Cognition enhancement activity in APPSWE/PSEN1dE9 double-transgenic mouse model of Alzheimer's disease assessed as decrease in total swim distance for hidden platform at 10 mg/kg, ip administered daily for 5 days per week for 4 weeks by Morris water maze test. It counts as functional, organism-based.
The subject of data set [14] is Mus musculus. Briefly: Antialzheimer activity in APPSWE/PSEN1dE9 double-transgenic mouse model of Alzheimer's disease assessed as decrease in impairment of motor coordination at 10 mg/kg, ip administered daily for 5 days per week for 4 weeks by rotarod test. It counts as functional, organism-based.
In data set [15] the test system is Mus musculus. Briefly: Antidepressant activity in APPSWE/PSEN1dE9 double-transgenic mouse model of Alzheimer's disease assessed as reduction in immobility time at 10 mg/kg, ip administered daily for 5 days per week for 4 weeks by tail suspension test. It counts as functional, organism-based.
A further data set has as its system HeLa. Briefly: Activation of SERCA in human HeLa cells assessed as protection against thapsigargin induced depletion of ER calcium stores at 10 uM up to 150 secs by cameleon plasmid-based fluorescence assay. It counts as cell-based.
The species entered for the next data set is Rattus norvegicus. Kind of data set: Cytoprotection against thapsigargin induced cell death in rat CSM14.1 cells assessed as increase in cell viability preincubated for 2 hrs followed by thapsigargin induction measured after 20 hrs by ATPlite assay. It counts as functional, cell-based. For orientation: Cellular ATP, detected with luciferase, serves as a proxy for viable cell number.

A short description of data set [16]: Cytotoxicity against rat CSM14.1 cells assessed as cell viability after 20 hrs by ATPlite assay relative to control. It counts as cell-based. The note with it: read-out: Activity.

Calls of active or inactive are those of the source.

Voltage-gated inwardly rectifying potassium channel KCNH2, sequence (Q12809 whole entry): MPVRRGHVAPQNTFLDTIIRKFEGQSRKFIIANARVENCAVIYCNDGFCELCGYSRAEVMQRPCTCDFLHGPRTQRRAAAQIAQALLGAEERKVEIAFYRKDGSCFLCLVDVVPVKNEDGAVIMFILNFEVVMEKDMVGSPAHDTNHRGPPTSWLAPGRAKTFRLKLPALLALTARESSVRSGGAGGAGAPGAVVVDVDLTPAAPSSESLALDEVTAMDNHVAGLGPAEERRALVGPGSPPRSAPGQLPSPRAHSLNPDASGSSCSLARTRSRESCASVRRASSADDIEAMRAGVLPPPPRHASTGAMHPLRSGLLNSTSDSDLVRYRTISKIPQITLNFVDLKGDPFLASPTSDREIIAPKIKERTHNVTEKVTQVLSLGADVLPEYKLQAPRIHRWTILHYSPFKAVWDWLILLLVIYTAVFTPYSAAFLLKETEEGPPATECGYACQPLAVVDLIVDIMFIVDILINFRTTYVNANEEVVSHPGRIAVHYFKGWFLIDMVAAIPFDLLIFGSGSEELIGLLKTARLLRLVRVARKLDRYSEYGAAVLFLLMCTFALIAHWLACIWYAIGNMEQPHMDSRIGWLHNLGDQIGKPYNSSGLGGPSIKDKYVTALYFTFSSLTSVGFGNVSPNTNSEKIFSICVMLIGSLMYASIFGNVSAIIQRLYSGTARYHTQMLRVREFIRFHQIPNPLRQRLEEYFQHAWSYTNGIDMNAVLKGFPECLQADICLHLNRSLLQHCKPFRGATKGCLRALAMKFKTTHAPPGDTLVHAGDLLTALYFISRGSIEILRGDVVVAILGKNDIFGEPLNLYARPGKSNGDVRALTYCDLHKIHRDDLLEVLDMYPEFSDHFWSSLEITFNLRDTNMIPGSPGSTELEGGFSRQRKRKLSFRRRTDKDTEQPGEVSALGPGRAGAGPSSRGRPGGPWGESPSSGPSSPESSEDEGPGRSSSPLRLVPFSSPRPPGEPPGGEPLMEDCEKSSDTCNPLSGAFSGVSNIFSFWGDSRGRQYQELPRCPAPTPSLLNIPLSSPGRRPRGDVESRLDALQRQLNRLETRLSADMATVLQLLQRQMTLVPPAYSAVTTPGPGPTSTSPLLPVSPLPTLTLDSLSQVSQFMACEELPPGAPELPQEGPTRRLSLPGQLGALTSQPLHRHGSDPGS

One may read the half-life as the time needed for the level to fall by half in the phase considered. Lower therefore signals rapid decline. What is called CL/F is clearance divided by bioavailability, as obtained after extravascular dosing. By bioavailability is commonly meant the share of a dose that reaches the circulation, judged against a reference dose that is usually intravenous. Lower therefore signals little systemic uptake. As for `Cc1ccc2cccc(NC(=O)c3ccc(OC(C)C)cc3)c2n1`, the half-life in data set [1] is 2 min; in data set [2], 45 min; in [3], 2 min; in [4], 15 min; in data set [5], 140 min; in [6], greater than 300 min. This compound also gave a CL/F in [7] of 251 mL/min/kg. Moreover, the “inhibition (INH)” value is recorded as “Active” in data set [8] and “Not Active” in data set [9]. The bioavailability in [10] was 37%. For the same compound, the Activity result was “Non-Toxic” with Mus musculus [11] and “Dose-dependent effect” in the data set listed under Rattus norvegicus. In addition, in data set [12], the Kp at 1 h was 3. Besides, the result in the data set on Mus musculus [13], in the data set on Mus musculus [14], with Mus musculus [15] and with HeLa was Active. Moreover, the viability at 20 h in data set [16] worked out at 100%.
